According to patent publication US20240279236A1, “COMPOUNDS AND METHODS OF TREATING TUBERCULOSIS” (Fimbrion Therapeutics, Inc., priority 2021, published 2024):

Each compound was assayed on WT Mtb Erdman strain (assay: Microplate Alamar Blue Assay (MABA), Mtb growth inhibition). Details: Mycobacterium tuberculosis, ERDMAN, 168 h, Middlebrook 7H9 media, 7 days at 37° C. in 5% CO2.
Assay type: cell-based, Mycobacterium tuberculosis

Going from `COC(=O)c1ccc(-c2ccc(CCCNc3nc(-c4ccoc4)nc4sc(C)cc34)cc2)cc1` [Example 318, methyl 4′-(3-((2-(furan-3-yl)-6-methylthieno[2,3-d]pyrimidin-4-yl)amino)propyl)-[1,1′-biphenyl]-4-carboxylate] to `Cc1cc2c(NCCCc3ccc(-c4ccc(F)cc4)cc3)nc(-c3ccoc3)nc2s1` [Example 322, N-(3-(4′-fluoro-[1,1′-biphenyl]-4-yl)propyl)-2-(furan-3-yl)-6-methylthieno[2,3-d]pyrimidin-4-amine], the IC50 falls from 20 nM to 6 nM (3.3-fold). The second is the more potent here.

Going from `Cc1cc2c(NC/C=C/c3ccc(-c4ccc(OC(F)(F)F)cc4)cc3)nc(-c3ccoc3)nc2s1` [Example 323, 2-(furan-3-yl)-6-methyl-N-[(2E)-3-[4′-(trifluoromethoxy)-[1,1′-biphenyl]-4-yl]prop-2-en-1-yl]thieno[2,3-d]pyrimidin-4-amine] to `Cc1cc2c(NCCCc3ccc(-c4ccc(C(F)(F)F)cc4)cc3)nc(-c3ccoc3)nc2s1` [Example 339, 2-(furan-3-yl)-6-methyl-N-(3-[4′-(trifluoromethyl)-[1,1′-biphenyl]-4-yl]propyl)thieno [2,3-d]pyrimidin-4-amine], the IC50 falls from 37 nM to less than 15 nM. The second is the more potent here.

Compared with `Cc1cc2c(NCCCc3ccc(-c4ccnc(C(F)(F)F)c4)cc3)nc(-c3ccoc3)nc2s1` [Example 324, 2-(furan-3-yl)-6-methyl-N-(3-(4-[2-(trifluoromethyl)pyridin-4-yl]phenyl)propyl) thieno[2,3-d]pyrimidin-4-amine], `Cc1cc2c(NCCCc3ccc(-c4cnc(C(F)(F)F)cn4)cc3)nc(-c3ccoc3)nc2s1` [Example 379, 2-(furan-3-yl)-6-methyl-N-(3-(4-[5-(trifluoromethyl)pyrazin-2-yl]phenyl)propyl) thieno[2,3-d]pyrimidin-4-amine] is 13-fold lower in IC50: 160 nM for the first, 12 nM for the second.

Going from `Cc1cc2c(NCCCc3ccc(-c4ccc(N(C)C)cc4)cc3)nc(-c3ccoc3)nc2s1` [Example 325, N-(3-[4′-(dimethylamino)-[1,1′-biphenyl]-4-yl]propyl)-2-(furan-3-yl)-6-methylthieno[2,3-d]pyrimidin-4-amine] to `Cc1cc2c(NCCCc3ccc(-c4ccc(C(C)(C)O)cc4)cc3)nc(-c3ccoc3)nc2s1` [Example 341, 2-[4′-(3-([2-(furan-3-yl)-6-methylthieno[2,3-d]pyrimidin-4-yl]amino)propy1)-[1,1′-biphenyl]-4-yl]propan-2-ol], the IC50 rises from 10 nM to 140 nM (14-fold).

`Cc1cc2c(NCCCc3ccc(-c4ccc(OC5CC5)cc4)cc3)nc(-c3ccoc3)nc2s1` [Example 326, N-(3-(4′-cyclopropoxy-[1,1′-biphenyl]-4-yl)propyl)-2-(furan-3-yl)-6-methylthieno[2,3-d]pyrimidin-4-amine] and `C#Cc1ccc(-c2ccc(CCCNc3nc(-c4ccoc4)nc4sc(C)cc34)cc2)cc1` [Example 333, N-(3-(4′-ethynyl-[1,1′-biphenyl]-4-yl)propyl)-2-(furan-3-yl)-6-methylthieno[2,3-d]pyrimidin-4-amine] are within 1.5-fold of each other in IC50: 15 nM for the first, 12 nM for the second.

Compared with `Cc1cc2c(NCCCc3ccc(-c4cccc(C#N)c4)cc3)nc(-c3ccoc3)nc2s1` [Example 327, 4′-(3-([2-(furan-3-yl)-6-methylthieno[2,3-d]pyrimidin-4-yl]amino)propyl)-[1,1′-biphenyl]-3-carbonitrile], `Cc1cc2c(NCCCc3ccc(-c4cccc([N+](=O)[O-])c4)cc3)nc(-c3ccoc3)nc2s1` [Example 340, 2-(furan-3-yl)-6-methyl-N-(3-(3′-nitro-[1,1′-biphenyl]-4-yl)propyl)thieno [2,3-d]pyrimidin-4-amine] is 4-fold lower in IC50: 100 nM for the first, 25 nM for the second.

Going from `Cc1cc2c(NCCCc3ccc(-c4ccc([N+](=O)[O-])cc4)cc3)nc(-c3ccoc3)nc2s1` [Example 328, 2-(furan-3-yl)-6-methyl-N-(3-(4′-nitro-[1,1′-biphenyl]-4-yl)propyl)thieno [2,3-d]pyrimidin-4-amine] to `Cc1cc2c(NCCCc3ccc(-c4ccc5c(ccn5C)c4)cc3)nc(-c3ccoc3)nc2s1` [Example 329, 2-(furan-3-yl)-6-methyl-N-(3-[4-(1-methyl-1H-indol-5-yl)phenyl]propyl) thieno[2,3-d]pyrimidin-4-amine], the IC50 rises from less than 1 nM to 34 nM.

Compared with `Cc1cc2c(NCCCc3ccc(-c4cccs4)cc3)nc(-c3ccoc3)nc2s1` [Example 330, 2-(furan-3-yl)-6-methyl-N-(3-[4-(thiophen-2-yl)phenyl]propyl) thieno[2,3-d]pyrimidin-4-amine], `Cc1cc2c(NCCCc3ccc(-c4ccsc4)cc3)nc(-c3ccoc3)nc2s1` [Example 334, 2-(furan-3-yl)-6-methyl-N-(3-[4-(thiophen-3-yl)phenyl]propyl) thieno[2,3-d]pyrimidin-4-amine] is higher in IC50: less than 5 nM for the first, 8 nM for the second. The first is the more potent here.

Compared with `Cc1cc2c(NCCCc3ccc(-c4cc(F)c(Cl)c(F)c4)cc3)nc(-c3ccoc3)nc2s1` [Example 331, N-(3-(4′-chloro-3′,5′-difluoro-[1,1′-biphenyl]-4-yl)propyl)-2-(furan-3-yl)-6-methylthieno[2,3-d]pyrimidin-4-amine], `Cc1cc2c(NCCCc3ccc(-c4cnc(F)c(C)c4)cc3)nc(-c3ccoc3)nc2s1` [Example 344, N-(3-[4-(6-fluoro-5-methylpyridin-3-yl)phenyl]propyl)-2-(furan-3-yl)-6-methylthieno[2,3-d]pyrimidin-4-amine] is 2.5-fold higher in IC50: 30 nM for the first, 74 nM for the second. The first is the more potent here.

First: Cc1cc2c(NCCCc3ccc(-c4cnoc4)cc3)nc(-c3ccoc3)nc2s1 [Example 332, 2-(furan-3-yl)-6-methyl-N-(3-[4-(1,2-oxazol-4-yl)phenyl]propyl) thieno[2,3-d]pyrimidin-4-amine]
Second: Cc1cc2c(NCCCc3ccc(-c4ccoc4)cc3)nc(-c3ccoc3)nc2s1 [Example 338, 2-(furan-3-yl)-N-(3-[4-(furan-3-yl)phenyl]propyl)-6-methylthieno[2,3-d]pyrimidin-4-amine]
The IC50 of the first is 5.3-fold higher: 80 nM for the first, 15 nM for the second. The second is the more potent here.

First: Cc1ccc(-c2ccc(CCCNc3nc(-c4ccoc4)nc4sc(C)cc34)cc2)o1 [Example 335, 2-(furan-3-yl)-6-methyl-N-(3-[4-(5-methylfuran-2-yl)phenyl]propyl) thieno[2,3-d]pyrimidin-4-amine]
Second: Cc1ccc(-c2ccc(CCCNc3nc(-c4ccoc4)nc4sc(C)cc34)cc2)s1 [Example 336, 2-(furan-3-yl)-6-methyl-N-(3-[4-(5-methylthiophen-2-yl)phenyl]propyl)thieno[2,3-d]pyrimidin-4-amine]
The IC50 of the first is 5.8-fold higher: 87 nM for the first, 15 nM for the second. The second is the more potent here.

Going from `Cc1cc2c(NCCCc3ccc(-c4ccco4)cc3)nc(-c3ccoc3)nc2s1` [Example 337, N-(3-[4-(furan-2-yl)phenyl]propyl)-2-(furan-3-yl)-6-methylthieno[2,3-d]pyrimidin-4-amine] to `Cc1cc2c(NCCCc3ccc(-c4ccc5nonc5c4)cc3)nc(-c3ccoc3)nc2s1` [Example 343, N-(3-[4-(2,1,3-benzoxadiazol-5-yl)phenyl]propyl)-2-(furan-3-yl)-6-methylthieno[2,3-d]pyrimidin-4-amine], the IC50 falls from 31 nM to less than 15 nM. The second is the more potent here.

Going from `CCc1nc(NCCCc2ccc(-c3ccccn3)cc2)c2cc(C)sc2n1` [Example 368, 2-ethyl-6-methyl-N-(3-(4-(pyridin-2-yl)phenyl)propyl) thieno[2,3-d] pyrimidin-4-amine] to `CCc1nc(NCCCc2ccc(-c3cccnn3)cc2)c2cc(C)sc2n1` [Example 373, 2-ethyl-6-methyl-N-(3-(4-(pyridazin-3-yl)phenyl)propyl) thieno[2,3-d] pyrimidin-4-amine], the IC50 rises from 210 nM to 1000 nM (4.8-fold). The first is the more potent here.

`CCc1nc(NCCCc2ccc(-c3cnc(C(F)(F)F)cn3)cc2)c2cc(C)sc2n1` [Example 369, 2-ethyl-6-methyl-N-(3-(4-(5-(trifluoromethyl)pyrazin-2-yl)phenyl)propyl)thieno[2,3-d]pyrimidin-4-amine] and `CCc1nc(NCCCc2ccc(-c3ccc(C(F)(F)F)cn3)cc2)c2cc(C)sc2n1` [Example 370, 2-ethyl-6-methyl-N-(3-(4-(5-(trifluoromethyl)pyridin-2-yl)phenyl)propyl)thieno[2,3-d]pyrimidin-4-amine] are within 1.5-fold of each other in IC50: 21 nM for the first, 25 nM for the second.

Compared with `CCc1nc(NCCCc2ccc(-c3cnccn3)cc2)c2cc(C)sc2n1` [Example 371, 2-ethyl-6-methyl-N-(3-(4-(pyrazin-2-yl)phenyl)propyl) thieno[2,3-d]pyrimidin-4-amine], `CCc1nc(NCCCc2ccc(-c3ncccn3)cc2)c2cc(C)sc2n1` [Example 372, 2-ethyl-6-methyl-N-(3-(4-(pyrimidin-2-yl)phenyl)propyl) thieno[2,3-d]pyrimidin-4-amine] is 1.7-fold higher in IC50: 150 nM for the first, 250 nM for the second. The first is the more potent here.

Going from `CCc1nc(NCCCc2ccc(-c3ccc(OC(F)(F)F)cc3F)cc2)c2cc(C)sc2n1` [Example 374, 2-ethyl-N-(3-(2′-fluoro-4′-(tri-fluoromethoxy)-[1,1′-biphenyl]-4-yl)propyl)-6-methylthieno[2,3-d]pyrimidin-4-amine] to `CCc1nc(NCCCc2ccc(-c3ccc(OC(F)(F)F)cn3)cc2)c2cc(C)sc2n1` [Example 376, 2-ethyl-6-methyl-N-(3-(4-(5-(trifluoro-methoxy)pyridin-2-yl)phenyl)propyl)thieno [2,3-d]pyrimidin-4-amine], the IC50 rises from 30 nM to 55 nM (1.8-fold). The first is the more potent here.

Going from `CCc1nc(NCCCc2ccc(-c3ccnnc3)cc2)c2cc(C)sc2n1` [Example 375, 2-ethyl-6-methyl-N-(3-(4-(pyridazin-4-yl)phenyl)propyl) thieno[2,3-d]pyrimidin-4-amine] to `Cc1cc2c(NCCCc3ccc(-c4cnc(F)cn4)cc3)nc(-c3ccoc3)nc2s1` [Example 377, N-(3-[4-(5-fluoropyrazin-2-yl)phenyl]propyl)-2-(furan-3-yl)-6-methylthieno [2,3-d]pyrimidin-4-amine], the IC50 falls from 860 nM to 8 nM (110-fold). The second is the more potent here.

Compared with `Cc1cc2c(NCCCc3ccc(-c4cnc(C5CC5)cn4)cc3)nc(-c3ccoc3)nc2s1` [Example 378, N-(3-[4-(5-cyclopropyl-pyrazin-2-yl)phenyl]propyl)-2-(furan-3-yl)-6-methylthieno[2,3-d]pyrimidin-4-amine], `COc1cnc(-c2ccc(CCCNc3nc(-c4ccoc4)nc4sc(C)cc34)cc2)cn1` [Example 380, 2-(furan-3-yl)-N-(3-[4-(5-methoxypyrazin-2-yl)phenyl]propyl)-6-methylthieno[2,3-d]pyrimidin-4-amine] is 3.7-fold lower in IC50: 63 nM for the first, 17 nM for the second. The second is the more potent here.
